pKi: −log10 of the molar value.
What was measured:
[1] = target: T1, human dopamine D2L receptors (long isoform) (Homo sapiens, UniProt P14416); assay: Dopamine D2L receptor binding, displacement of [125I] iodospiperone; settings: ratio, HEK-293 membranes, 0.01 nM [125I] iodospiperone
T1 construct: expressed in transfected cells
Description: (§1) The substance to be tested was either dissolved in methanol/Chremophor® (BASF-AG) or in dimethyl sulfoxide and then diluted with water to the desired concentration.
(§2) Each assay mixture was run in triplicate.
The incubation buffer contained 50 mM tris, 120 mM NaCl, 5 mM KCl, 2 mM CaCl2, 2 mM MgCl2 and 0.1% bovine serum albumin. The buffer was adjusted to pH 7.4 with HCl.
(§3) Measurement and Analysis:
(§4) After having been incubated at 25° C. for 60 minutes, the assay mixtures were filtered through a Whatman GF/B glass fiber filter under vacuum using a cell collecting device. The filters were transferred to scintillation viols using a filter transfer system. After 4 ml of Ultima Gold® (Packard) have been added, the samples were shaken for one hour and the radioactivity was then counted in a Beta-Counter (Packard, Tricarb 2000 or 2200CA). The cpm values were converted into dpm using a standard quench series and the program belonging to the instrument.
(§5) The inhibition curves were analyzed by means of iterative nonlinear regression analysis using the Statistical Analysis System (SAS) which is similar to the “LIGAND” program described by Munson and Rodbard.

[2] = target: T2, human dopamine D3 receptors (Homo sapiens, UniProt P35462); assay: Dopamine D3 receptor binding, displacement of [125I]-iodosulpride; settings: membranes of HEK-293 cells stably expressing human D3 receptor; 0.1 nM [125I]-iodosulpride; 25° C., 60 minutes
T2 construct: expressed in transfected cells
Description: as §1, §2
The incubation buffer contained 50 mM tris, 120 mM NaCl, 5 mM KCl, 2 mM CaCl2, 2 mM MgCl2 and 0.1% bovine serum albumin, 10 μM quinolone and 0.1% ascorbic acid (prepared fresh daily). The buffer was adjusted to pH 7.4 with HCl.
as §3, §4, §5

T1 sequence (P14416 whole entry, canonical isoform): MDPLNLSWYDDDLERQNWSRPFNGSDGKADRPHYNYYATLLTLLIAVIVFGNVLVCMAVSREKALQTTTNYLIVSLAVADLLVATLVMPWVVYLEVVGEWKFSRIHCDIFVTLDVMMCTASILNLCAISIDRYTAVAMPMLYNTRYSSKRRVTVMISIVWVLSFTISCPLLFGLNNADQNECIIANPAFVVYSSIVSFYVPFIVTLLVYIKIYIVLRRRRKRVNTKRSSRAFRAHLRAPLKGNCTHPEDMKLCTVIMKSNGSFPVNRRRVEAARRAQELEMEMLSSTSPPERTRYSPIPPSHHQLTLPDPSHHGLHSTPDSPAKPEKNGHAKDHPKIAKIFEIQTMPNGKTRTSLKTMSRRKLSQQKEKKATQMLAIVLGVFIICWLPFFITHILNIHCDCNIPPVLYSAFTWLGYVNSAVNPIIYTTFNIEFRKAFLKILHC
T2 sequence (P35462 whole entry): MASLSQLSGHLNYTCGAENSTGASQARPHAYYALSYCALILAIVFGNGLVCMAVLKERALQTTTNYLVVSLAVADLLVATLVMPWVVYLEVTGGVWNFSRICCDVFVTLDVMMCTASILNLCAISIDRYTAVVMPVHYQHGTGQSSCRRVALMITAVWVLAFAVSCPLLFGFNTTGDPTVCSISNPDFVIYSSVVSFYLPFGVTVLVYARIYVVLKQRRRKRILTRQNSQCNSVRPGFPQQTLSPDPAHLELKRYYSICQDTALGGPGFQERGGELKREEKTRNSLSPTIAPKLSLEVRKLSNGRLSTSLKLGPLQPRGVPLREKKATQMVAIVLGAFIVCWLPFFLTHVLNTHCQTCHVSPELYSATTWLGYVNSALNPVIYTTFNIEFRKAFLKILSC

N-[2-(4-Allylpiperazin-1-yl)pyridin-5-yl]-4-(N-pyrrolidinyl)benzene-sulfonamide fumarate [Example 42]
Selectivity vs. D2L [1]: 33
pKi [2]: 8.28

Reference: patent US8476275B2, “N-[piperazinyl hetaryl]arylsufonamide compounds with affinity for the dopamine D3 receptor” (Abbott GmbH & Co. KG, priority 2003, dated 2013)
